Our source for the IC50 values is US10703727B2, “Method for preparing substituted 3-(2-anilino-1-cyclohexyl-1H-benzimidazol-5-yl)propanoic acid derivatives” (Bayer Pharma Aktiengesellschaft, priority 2015, dated 2020).

In general, IC50 refers to the concentration that inhibits the measured activity by half. The low end stands for higher potency, the high end for lower potency.

In assay [1] the target is T1, IDH1 R132H (Homo sapiens, UniProt O75874, R132H). The assay is described as follows: Inhibition of IDH1 R132H in a biochemical assay (NADPH consumption, luminescence). The note with it: 1.5 nM enzyme, 1 μM NADPH, 250 μM α-KG, 32° C., 30 minutes. As for the experimental part:
NADPH consumption is determined by luminescence.
Test compounds were assayed in a concentration range of 0.002 to 10 μM. The final DMSO concentration was 2.4%.
The luminescence was determined using a luminescence reader (10 seconds measurement time, 1 second integration period, 30% sensitivity). The drop in luminescence is proportional to the activity of mIDH1. IC50 values were determined by interpolation from plots of the relative luminescence against the inhibitor concentration.

The target in assay [2] is T1, IDH1 R132H. Description: Cellular assay: 2-HG in medium of LN229 R132H cells overexpressing mutated IDH. Format: cell-based. Conditions: 24 hours. As to the method:
Concentrations of (2R)-2-hydroxyglutarate (2HG) were determined in a medium of a cell line having an overexpession of the mutated isocitrate dehydrogenase protein. mIDH catalyses the NADPH-dependent reduction of alpha-ketoglutarate to 2-HG. […] The cells were obtained using trypsin and placed in 96-well titre plates. The cells were incubated overnight at 37° C. in 5% CO2. On the next day, test compounds were added to the cells. The final concentration of DMSO was 0.1% and DMSO controls were used. The titre plates were then placed in an incubator for 24 hours.
2-HG was measured using the method published by Balss et al. (Acta Neuropathol (2012) 124: 883-891). HClO4 was added to each well and the titre plates were centrifuged. Aliquots were removed and incubated with hydroxyglutarate dehydrogenase (HGDH), diaphorase, NAD+ and resazurin. The conversion of resazurin to resorufin was determined by fluorescence spectroscopy at Ex 540 nm Em 600 nm. The increase in the fluorescence signal is proportional to formation of 2-HG. IC50 values were determined by interpolation from plots of the relative fluorescence against the inhibitor concentration.

T1 sequence (O75874 whole entry R132H): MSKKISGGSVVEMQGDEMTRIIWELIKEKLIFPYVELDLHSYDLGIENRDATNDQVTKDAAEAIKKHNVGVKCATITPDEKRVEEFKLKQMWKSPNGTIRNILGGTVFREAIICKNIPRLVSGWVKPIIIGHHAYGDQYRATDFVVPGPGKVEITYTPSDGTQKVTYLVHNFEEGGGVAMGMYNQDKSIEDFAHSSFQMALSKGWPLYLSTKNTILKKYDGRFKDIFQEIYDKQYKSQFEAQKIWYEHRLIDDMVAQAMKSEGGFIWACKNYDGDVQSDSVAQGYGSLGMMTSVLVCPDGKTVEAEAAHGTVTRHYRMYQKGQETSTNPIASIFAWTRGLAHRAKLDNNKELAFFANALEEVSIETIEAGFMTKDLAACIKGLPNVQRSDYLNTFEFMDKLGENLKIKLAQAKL

Take `CC(C)Oc1ccc(Nc2nc3cc(CCC(=O)O)ccc3n2[C@H]2C[C@@H](C)CC(C)(C)C2)cc1` (racemic) [(±) 3-(2-{[4-(Propan-2-yloxy)phenyl]amino}-1-[(cis)-3,3,5-trimethylcyclohexyl]-1H-benzimidazol-5-yl)propanoic acid]: the values for the IC50 against IDH1 R132H [1] and against IDH1 R132H [2] were 60 nM and 400 nM, respectively.
In the same order, the values of `CC1(C)CCCC(n2c(Nc3ccc(OC(F)(F)F)cc3)nc3cc(CCC(=O)O)ccc32)C1` (racemic) [(±) 3-(1-[3,3-dimethylcyclohexyl]-2-{[4-(trifluoromethoxy)phenyl]amino}-1H-benzimidazol-5-yl)propanoic acid] are 60 nM and 850 nM.
In the same order, the values of `COC(=O)CCc1ccc2c(c1)nc(Nc1ccc(C(C)C)cc1)n2[C@H]1C[C@@H](C)CC(C)(C)C1` (racemic) [(±) Methyl 3-(2-{[4-(propan-2-yl)phenyl]amino}-1-[(cis)-3,3,5-trimethylcyclohexyl]-1H-benzimidazol-5-yl)propanoate] are 170 nM and 90 nM.
In the same order, the values of `CC(C)c1ccc(Nc2nc3cc(CCC(=O)O)ccc3n2[C@H]2C[C@@H](C)CC(C)(C)C2)cc1` (racemic) [(±) 3-(2-{[4-(Propan-2-yl)phenyl]amino}-1-[(cis)-3,3,5-trimethylcyclohexyl]-1H-benzimidazol-5-yl)propanoic acid] are 20 nM and 80 nM.
For the compound `CC(C)c1ccc(Nc2nc3cc(CCC(=O)O)ccc3n2C2CCCC(C)(C)C2)cc1` (racemic) [(±) 3-(1-[3,3-Dimethylcyclohexyl]-2-{[4-(propan-2-yl)phenyl]amino}-1H-benzimidazol-5-yl)propanoic acid], the figures for the IC50 at IDH1 R132H [1] and against IDH1 R132H [2] were 50 nM and 400 nM, respectively.
In the same order, the values of `COC(=O)CCc1ccc2c(c1)nc(Nc1ccc(OC(F)(F)F)cc1)n2[C@H]1C[C@@H](C)CC(C)(C)C1` (racemic) [(±) Methyl 3-(2-{[4-(trifluoromethoxy)phenyl]amino}-1-[(cis)-3,3,5-trimethylcyclohexyl]-1H-benzimidazol-5-yl)propanoate] are 300 nM and 300 nM.
In the same order, the values of `C[C@@H]1C[C@H](n2c(Nc3ccc(C(F)(F)F)cc3)nc3cc(CCC(=O)O)ccc32)CC(C)(C)C1` (racemic) [(±) 3-(2-{[4-(Trifluoromethyl)phenyl]amino}-1-[(cis)-3,3,5-trimethylcyclohexyl]-1H-benzimidazol-5-yl)propanoic acid] are 40 nM and 70 nM.
For the compound `CC(C)Oc1ccc(Nc2nc3cc(CCC(=O)O)ccc3n2C2CCCC(C)(C)C2)cc1` (racemic) [(±) 3-(1-[3,3-Dimethylcyclohexyl]-2-{[4-(propan-2-yloxy)phenyl]amino}-1H-benzimidazol-5-yl)propanoic acid], the values for the IC50 against IDH1 R132H [1] and against IDH1 R132H [2] were 300 nM and 850 nM, respectively.
